Assay type in all cases: cell-based, human
For assay [1], the system named is Hep3B cells. As to the kind of experiment: TUNEL assay. Here is the method: (§1) U343 (5×10^4), U87MG (5×10^4), C33A (5×10^5), Hep3B (4×10^5) and A549 (5×10^4) cells were plated onto a chamber slide and then infected with adenovirus at an MOI of 0.2-20. Following 24 hr and 48 hr of infection, medium was removed and TUNNEL (terminal deoxynucleotidyl transferase(TdT)-mediated dUTP nick end labeling) assay was carried out according to the manufacturer's instruction of ApopTag kit (Intergen, Purchase, N.Y.). For color development, cells were incubated with peroxidase-conjugated avidin and DAB (diaminobenzidine; DAKO, Carpinteria, Calif.). At the time that color of cells became brown, cells were counterstained with 0.5% methyl green for 10 min and observed under microscope in more than 4 selected fields. The ratio of stained cells to total cells was calculated.

The test system of assay [2] is A549 cells. As to the kind of experiment: TUNEL assay. Here is the method:
as §1

In assay [3] the test system is C33A cells. As to the kind of experiment: TUNEL assay. Here is the method: as §1
Assay [4] concerns U87MG cells. As to the kind of experiment: TUNEL assay. On the procedure:
as §1

Assay [5] concerns U343 cells. As to the kind of experiment: TUNEL assay. On the procedure:
as §1

For assay [6], the system named is U343 cells. As to the kind of experiment: Annexin V-FITC and PI dual staining, flow cytometry. The note with it: FIG. 9b, replication-incompetent adenoviruses. The source says: In addition, to examine early apoptosis induced by decorin, several human tumor cell lines were infected with each adenovirus as described above. The infected cells were collected and then processed for Annexin V/PI dual staining according to manufacturer's instruction in the ApoAlert V-FITC (fluorescein isothiocyanate) apoptosis detection kit (Clontech, Palo Alto, Calif.), followed by flow cytometric analysis.

Assay [7] relates to Hep3B cells. As to the kind of experiment: Flow cytometry after PI staining, subG1 cell population. On the procedure:
(§2) To examine apoptosis induced by decorin, human tumor cell lines, U343, U87MG, C33A, Hep3B and A549 were introduced to 25T culture flasks and 24 hr later, were infected with each adenovirus at MOIs of 0.5-50. […] After 48 hr, 72 hr and 96 hr of infection, the infected cells were collected and fixed in 70% ethanol at 4° C. over 24 hr. Following the fixation, the cells were incubated at 4° C. with a mixture of PI (propidium iodide, 50 μg/ml) and RNase (ribonuclease) for 15 min and the FACS analysis was then performed.

Assay [8] concerns A549 cells. The assay is described as above. On the procedure:
as §2

Assay [9] relates to C33A cells. Described as above. Here is the method:
as §2

For assay [10], the system named is U87MG cells. Described as above. Here is the method:
as §2

The subject of assay [11] is U343 cells. The description is as above. Here is the method: as §2
Setting [12] is: Table 3 lower part, replication-incompetent adenoviruses.
Where [13] appears, read: Table 3 upper part, oncolytic adenoviruses.
Setting [14] is: Table 1, oncolytic adenoviruses, 48-96 hr post-infection.
Where [15] appears, read: Table 2, replication-incompetent adenoviruses.

The text below walks through data of patent publication US9468690B2, “Decorin gene delivery system and cancer treatment” ([…] CO., LTD., priority 2005, dated 2016).

SMILES strings stand for the structures.

Regarding `CCc1c2c(nc3ccc(OC(=O)N4CCC(N5CCCCC5)CC4)cc13)-c1cc3c(c(=O)n1C2)COC(=O)[C@]3(O)CC` [CPT, camptothecin-11], the “Proportion of apoptotic cells (%)” value in the assay with Hep3B cells [1] (setting [12]) stood at 75.86 ± 3.11%; in the assay with Hep3B cells [1] (setting [13]) it was 71.2 ± 15.73%; with A549 cells [2] (setting [12]), 69.80 ± 8.38%; in the assay with A549 cells [2] (setting [13]), 37.5 ± 5.35%; with C33A cells [3] (setting [12]), 70.51 ± 15.90%; in the assay on C33A cells [3] (setting [13]), 60.1 ± 25.91%. In addition, the “Proportion of apoptotic cells (%)” value amounted to 40.00 ± 13.17% in the assay on U87MG cells [4] (setting [12]), 83.0 ± 29.29% in the assay on U87MG cells [4] (setting [13]), 74.67 ± 12.38% in the assay on U343 cells [5] (setting [12]) and 53.5 ± 7.45% in the assay on U343 cells [5] (setting [13]). In the assay with U343 cells [6], the “apoptotic rate (Annexin V-FITC+/PI−)” value is given as 19.41%. The “subG1 cell population (%)” value with Hep3B cells [7] (setting [14]) is on record as 5.99%; with Hep3B cells [7] (setting [15]), 16.60%; with A549 cells [8] (setting [14]) it was 17.96%; in the assay with A549 cells [8] (setting [15]), 21.59%; with C33A cells [9] (setting [14]), 26.44%; in the assay on C33A cells [9] (setting [15]) it was 68.20%. The “subG1 cell population (%)” value in the assay with U87MG cells [10] (setting [14]) came out at 14.78%; with U87MG cells [10] (setting [15]), 12.51%; in the assay with U343 cells [11] (setting [14]), 59.86%; in the assay on U343 cells [11] (setting [15]), 29.02%.
